# Measurements published in US10047050B2, “3,4-di-substituted pyridine compound, methods of using and compositions comprising the same” (ARDEA BIOSCIENCES, INC., priority 2011, dated 2018).
# Where “and” joins values, the source holds several entries; their conditions need not be identical. Equal values may be shown once.
# System: serum uric acid
# Experiment: Multi-dose Phase I clinical trial, serum uric acid (sUA), once daily for 10 days
# Type: in vivo, human
# Conditions: for Absolute sUA concentration: individual subjects 4-12; for Absolute sUA concentration, Mean (4-10): mean of subjects 4-10
# Description: A Phase 1, Randomized, Double-Blind, Placebo-Controlled Study to Evaluate Safety, Tolerability, Pharmacokinetics and Preliminary Food Effect of Multiple Rising Doses of a URAT1 Inhibitor, in Healthy Adult Male Volunteers.
# Fasted subjects receive oral doses of active or placebo, once daily, for 10 days, at the following doses:
# 36 subjects in 3 dose groups, 12 subjects/group, are randomized […] to receive active (9/group) or placebo ([…]). All study procedures are the same regardless of whether subject receives active or placebo. Total duration of subject participation, including screening period, is ˜2-4 weeks, and the total volume of blood collected from each subject during the entire study <500 mL, (less than typically collected during a volunteer blood donation).
# 5 mg, active and placebo, tablets packaged in 35 count HDPE bottles, stored at controlled room temperature (15-30° C.). Placebo tablets are designed to match the active tablets—identical size, form, taste, and color, and containing the same excipients. 1 mg doses were administered as oral solutions.
# Subjects dosed in the morning of Days 1-10 with ˜240 mL of room temp water.
# Urine, serum and plasma samples collected periodically
# PD samples frozen (−20° C.) and stored; all samples from a given subject assayed in a single analytical run.
# [1] = group 7, 1 mg once daily for 10 days, Time 192, mean of subjects 4-12
# [2] = group 7, 1 mg once daily for 10 days, Time 216, mean of subjects 4-12
# [3] = group 7, 1 mg once daily for 10 days, Time 222 (post dosing), mean of subjects 4-12
# [4] = group 7, 1 mg once daily for 10 days, Time 228 (post dosing), mean of subjects 4-12
# [5] = group 7, 1 mg once daily for 10 days, Time 240 (post dosing), mean of subjects 4-12
# [6] = group 7, 1 mg once daily for 10 days, Time 246 (post dosing), mean of subjects 4-12
# [7] = group 7, 1 mg once daily for 10 days, Time 252 (post dosing), mean of subjects 4-12
# [8] = group 7, 1 mg once daily for 10 days, Time 264 (post dosing), mean of subjects 4-12
# [9] = group 7, 1 mg once daily for 10 days, Time 270 (post dosing), mean of subjects 4-12
# [10] = group 7, 1 mg once daily for 10 days, Time 288 (post dosing), mean of subjects 4-12
# [11] = group 7, 1 mg once daily for 10 days, Time 312 (post dosing), mean of subjects 4-12
smiles,measurement,setting,value
CC(C)(Sc1ccncc1-c1ccc(C#N)c2ccccc12)C(=O)O [2-((3-(4-cyanonaphthalen-1-yl)pyridin-4-yl)thio)-2-methylpropanoic acid],"Absolute sUA concentration, Mean (4-12)","group 7, 1 mg once daily for 10 days, Time 168, mean of subjects 4-12",6.1 mg/dL
same,Absolute sUA concentration,"group 7, 1 mg once daily for 10 days, Time 192",4.6 mg/dL and 5.0 mg/dL and 4.9 mg/dL and 6.5 mg/dL and 6.1 mg/dL and 5.9 mg/dL and 5.6 mg/dL and 5.1 mg/dL and 5.5 mg/dL
same,"% sUA change (from baseline), Mean (4-12)",[1],−11.4%
same,"Absolute sUA concentration, Mean (4-12)",[1],5.5 mg/dL
same,Absolute sUA concentration,"group 7, 1 mg once daily for 10 days, Time 216",4.7 mg/dL (2×) and 4.9 mg/dL (2×) and 6.1 mg/dL and 5.8 mg/dL and 5.3 mg/dL and 5.6 mg/dL and 5.9 mg/dL
same,"% sUA change (from baseline), Mean (4-12)",[2],−13.6%
same,"Absolute sUA concentration, Mean (4-12)",[2],5.3 mg/dL
same,Absolute sUA concentration,"group 7, 1 mg once daily for 10 days, Time 222 (post dosing)",4.7 mg/dL and 5.2 mg/dL and 4.9 mg/dL and 6.3 mg/dL and 5.9 mg/dL and 5.8 mg/dL and 5.4 mg/dL and 5.0 mg/dL and 5.5 mg/dL
same,"% sUA change (from baseline), Mean (4-12)",[3],−12.2%
same,"Absolute sUA concentration, Mean (4-12)",[3],5.4 mg/dL
same,Absolute sUA concentration,"group 7, 1 mg once daily for 10 days, Time 228 (post dosing)",4.3 mg/dL and 4.8 mg/dL (2×) and 4.9 mg/dL and 6.2 mg/dL and 5.6 mg/dL and 5.5 mg/dL and 5.3 mg/dL and 5.4 mg/dL
same,"% sUA change (from baseline), Mean (4-12)",[4],−15.6%
same,"Absolute sUA concentration, Mean (4-12)",[4],5.2 mg/dL
same,Absolute sUA concentration,"group 7, 1 mg once daily for 10 days, Time 240 (post dosing)",4.8 mg/dL and 5.5 mg/dL and 5.3 mg/dL and 6.9 mg/dL and 6.2 mg/dL (2×) and 5.9 mg/dL and 5.2 mg/dL and 6.0 mg/dL
same,"% sUA change (from baseline), Mean (4-12)",[5],−6.3%
same,"Absolute sUA concentration, Mean (4-12)",[5],5.8 mg/dL
same,Absolute sUA concentration,"group 7, 1 mg once daily for 10 days, Time 246 (post dosing)",4.4 mg/dL
same,"% sUA change (from baseline), Mean (4-12)",[6],−13.2%
same,"Absolute sUA concentration, Mean (4-12)",[6],5.4 mg/dL
same,"% sUA change (from baseline), Mean (4-12)",[7],−10.6%
same,"Absolute sUA concentration, Mean (4-12)",[7],5.5 mg/dL
same,"% sUA change (from baseline), Mean (4-12)",[8],−10.3%
same,"Absolute sUA concentration, Mean (4-12)",[8],5.5 mg/dL
same,"% sUA change (from baseline), Mean (4-12)",[9],−17.4%
same,"Absolute sUA concentration, Mean (4-12)",[9],5.1 mg/dL
same,"% sUA change (from baseline), Mean (4-12)",[10],−19.8%
same,"Absolute sUA concentration, Mean (4-12)",[10],5.0 mg/dL
same,"% sUA change (from baseline), Mean (4-12)",[11],−14.9%
same,"Absolute sUA concentration, Mean (4-12)",[11],5.3 mg/dL
same,"% sUA change (from baseline), Mean (4-12)","group 8, 5 mg once daily for 10 days, Time 0, mean of active subjects",0%
same,"Absolute sUA concentration, Mean (4-10)","group 8, 5 mg once daily for 10 days, Time 0",5.9 mg/dL
same,"% sUA change (from baseline), Mean (4-12)","group 8, 5 mg once daily for 10 days, Time 6, mean of active subjects",−20.5%
same,"Absolute sUA concentration, Mean (4-10)","group 8, 5 mg once daily for 10 days, Time 6",4.7 mg/dL
same,"% sUA change (from baseline), Mean (4-12)","group 8, 5 mg once daily for 10 days, Time 12, mean of active subjects",−25.6%
same,"Absolute sUA concentration, Mean (4-10)","group 8, 5 mg once daily for 10 days, Time 12",4.4 mg/dL
same,"% sUA change (from baseline), Mean (4-12)","group 8, 5 mg once daily for 10 days, Time 24, mean of active subjects",−21.1%
same,"Absolute sUA concentration, Mean (4-10)","group 8, 5 mg once daily for 10 days, Time 24",4.7 mg/dL
same,"% sUA change (from baseline), Mean (4-12)","group 8, 5 mg once daily for 10 days, Time 48, mean of active subjects",−30.9%
same,"Absolute sUA concentration, Mean (4-10)","group 8, 5 mg once daily for 10 days, Time 48",4.1 mg/dL
same,"% sUA change (from baseline), Mean (4-12)","group 8, 5 mg once daily for 10 days, Time 72, mean of active subjects",−33.7%
same,"Absolute sUA concentration, Mean (4-10)","group 8, 5 mg once daily for 10 days, Time 72",3.9 mg/dL
same,"% sUA change (from baseline), Mean (4-12)","group 8, 5 mg once daily for 10 days, Time 96, mean of active subjects",−30.4%
same,"Absolute sUA concentration, Mean (4-10)","group 8, 5 mg once daily for 10 days, Time 96",4.1 mg/dL
same,"% sUA change (from baseline), Mean (4-12)","group 8, 5 mg once daily for 10 days, Time 102, mean of active subjects",−37.8%
same,"Absolute sUA concentration, Mean (4-10)","group 8, 5 mg once daily for 10 days, Time 102",3.7 mg/dL
same,"% sUA change (from baseline), Mean (4-12)","group 8, 5 mg once daily for 10 days, Time 108, mean of active subjects",−40.2%
same,"Absolute sUA concentration, Mean (4-10)","group 8, 5 mg once daily for 10 days, Time 108",3.5 mg/dL
same,"% sUA change (from baseline), Mean (4-12)","group 8, 5 mg once daily for 10 days, Time 120, mean of active subjects",−30%
same,"Absolute sUA concentration, Mean (4-10)","group 8, 5 mg once daily for 10 days, Time 120",4.1 mg/dL
same,"% sUA change (from baseline), Mean (4-12)","group 8, 5 mg once daily for 10 days, Time 144, mean of active subjects",−35.2%
same,"Absolute sUA concentration, Mean (4-10)","group 8, 5 mg once daily for 10 days, Time 144",3.8 mg/dL
same,"% sUA change (from baseline), Mean (4-12)","group 8, 5 mg once daily for 10 days, Time 168, mean of active subjects",−38.1%
same,"Absolute sUA concentration, Mean (4-10)","group 8, 5 mg once daily for 10 days, Time 168",3.6 mg/dL
same,"% sUA change (from baseline), Mean (4-12)","group 8, 5 mg once daily for 10 days, Time 192, mean of active subjects",−35.7%
same,"Absolute sUA concentration, Mean (4-10)","group 8, 5 mg once daily for 10 days, Time 192",3.8 mg/dL
same,"% sUA change (from baseline), Mean (4-12)","group 8, 5 mg once daily for 10 days, Time 216, mean of active subjects",−33.4%
same,"Absolute sUA concentration, Mean (4-10)","group 8, 5 mg once daily for 10 days, Time 216",3.9 mg/dL
same,"% sUA change (from baseline), Mean (4-12)","group 8, 5 mg once daily for 10 days, Time 222 (post dosing), mean of active subjects",−39.6%
same,"Absolute sUA concentration, Mean (4-10)","group 8, 5 mg once daily for 10 days, Time 222 (post dosing)",3.6 mg/dL
same,"% sUA change (from baseline), Mean (4-12)","group 8, 5 mg once daily for 10 days, Time 228 (post dosing), mean of active subjects",−41.4%
same,"Absolute sUA concentration, Mean (4-10)","group 8, 5 mg once daily for 10 days, Time 228 (post dosing)",3.5 mg/dL
same,"% sUA change (from baseline), Mean (4-12)","group 8, 5 mg once daily for 10 days, Time 240 (post dosing), mean of active subjects",−31.2%
same,"Absolute sUA concentration, Mean (4-10)","group 8, 5 mg once daily for 10 days, Time 240 (post dosing)",4.1 mg/dL
same,"% sUA change (from baseline), Mean (4-12)","group 8, 5 mg once daily for 10 days, Time 246 (post dosing), mean of active subjects",−35.8%
same,"Absolute sUA concentration, Mean (4-10)","group 8, 5 mg once daily for 10 days, Time 246 (post dosing)",3.8 mg/dL
same,"% sUA change (from baseline), Mean (4-12)","group 8, 5 mg once daily for 10 days, Time 252 (post dosing), mean of active subjects",−39.1%
same,"Absolute sUA concentration, Mean (4-10)","group 8, 5 mg once daily for 10 days, Time 252 (post dosing)",3.6 mg/dL
same,"% sUA change (from baseline), Mean (4-12)","group 8, 5 mg once daily for 10 days, Time 264 (post dosing), mean of active subjects",−31.9%
same,"Absolute sUA concentration, Mean (4-10)","group 8, 5 mg once daily for 10 days, Time 264 (post dosing)",4.0 mg/dL
same,"% sUA change (from baseline), Mean (4-12)","group 8, 5 mg once daily for 10 days, Time 270 (post dosing), mean of active subjects",−22.9%
same,"Absolute sUA concentration, Mean (4-10)","group 8, 5 mg once daily for 10 days, Time 270 (post dosing)",4.5 mg/dL
same,"% sUA change (from baseline), Mean (4-12)","group 8, 5 mg once daily for 10 days, Time 288 (post dosing), mean of active subjects",−24.8%
same,"Absolute sUA concentration, Mean (4-10)","group 8, 5 mg once daily for 10 days, Time 288 (post dosing)",4.4 mg/dL
same,"% sUA change (from baseline), Mean (4-12)","group 8, 5 mg once daily for 10 days, Time 312 (post dosing), mean of active subjects",−13.7%
same,"Absolute sUA concentration, Mean (4-10)","group 8, 5 mg once daily for 10 days, Time 312 (post dosing)",5.1 mg/dL
